Measurements from patent publication US20020173502A1, “Pharmaceutically active compounds” (priority 2001, published 2002).

Tests used:
[1] = Hepatocyte incubation, metabolism followed by turbulent flow LC-MS-MS; type: in vitro ADME, human, dog; details: test compound 2 μM, sampled 0-180 minutes; transitions 439 to 84 (ketone) and 441 to 84 (alcohol)
Protocol: Hepatocyte incubations were used to determine the metabolism of both compound 1A according to the present invention and also the compound of Preparation 1. In such testing a marker compound was routinely included to ensure reproducible, active preparations were obtained.
Standard methodologies relating to hepatocyte testing can be found in: Carlille, D, Zomorodi, K, Houston, B; Drug Met. Dispos. 1997, 25(8), pp903-911, “Scaling factors to relate drug metabolic clearance in hepatic microsomes isolated hepatocytes, and the intact liver”.
Marker compound: 0.3 mM Propranolol in 100% DMSO.
Test materials (e.g. compound 1A) 1 mg/ml stocks or 3 mM in 100% DMSO.
Human hepatocytes used at a concentration of 2×10^6 cells/ml (per compound tested).
Dog hepatocytes used at a concentration of 1×10^6 cells/ml (per compound tested).
William's E buffer (1 pot of William's E powder from Sigma, 900 ml distilled water, 2.2 g sodium bicarbonate, 100 ml Foetal Bovine Serum) STOP solution (Midazolam internal standard plus acetonitrile: 600 μl of 10 μg/ml midazolam +30 ml acetonitrile). […]
Hepatocyte viability was determined using the Trypan Blue Exclusion method by gentle mixing of 350 μl KH buffer+100 μI Trypan Blue solution+50 μl cell suspension in an eppendorf tube. The cells were then counted using a haemocytometer. […] The number of viable (colourless) cells within 10 squares was recorded. […]

[2] = In vivo interconversion of compound 1A and the compound of Preparation 1; details: no species or method printed
cGMP PDE5 = biological target: T1, cGMP PDE5 (Homo sapiens, UniProt O76074); experiment: Phosphodiesterase (PDE) inhibitory activity, in vitro IC50; type: biochemical; details: read-out: IC50 as an inhibitor of cGMP PDE5
T1 construct: were obtained from human corpus cavernosum or human platelets; from tissue; host or cells: human corpus cavernosum or human platelets
Protocol: The compounds of the present invention are cGMP PDE5 inhibitors. In vitro PDE inhibitory activities against cyclic guanosine 3′,5′-monophosphate (CGMP) and cyclic adenosine 3′,5′-monophosphate (cAMP) phosphodiesterases were determined by measurement of their IC50 values (the concentration of compound required for 50% inhibition of enzyme activity).
The required PDE enzymes were isolated from a variety of sources, including human corpus cavernosum, human and rabbit platelets, human cardiac ventricle, human skeletal muscle and human and canine retina, essentially by the method of W. J. Thompson and M. M. Appleman (Biochem., 1971, 10, 311). In particular, the cGMP-specific PDE (PDE5) and the cGMP-inhibited cAMP PDE (PDE3) were obtained from human corpus cavernosum or human platelets; the cGMP-stimulated PDE (PDE2) was obtained from human corpus cavernosum and human platelets; the calcium/calmodulin (Ca/CAM)-dependent PDE (PDE1) from human cardiac ventricle; the cAMP-specific PDE (PDE4) from human skeletal muscle and human recombinant, expressed in SF9 cells; and the photoreceptor PDE (PDE6) from human or canine retina. Phosphodiesterases 7-11 were generated from full length human recombinant clones transfected into SF9 cells. […]

Row | SMILES | mass transition of the starting compound during hepatocyte incubation; product transition then appears [1] | conversion in vivo (pro-drug / metabolite relation) [2] | IC50 (cGMP PDE5) [nM]
1 | CCCCOc1ncc(C(C)=O)cc1-c1nc2c(CC)n(C3CN(CC)C3)nc2c(=O)[nH]1 [Preparation 1, 5-(5-acetyl-2-butoxy-3-pyridinyl)-3-ethyl-2-(1-ethyl-3-azetidinyl)-2,6-dihydro-7H-pyrazolo[4,3-d]pyrimidin-7-one, reference compound] | reduces to levels below the detection limit of the equipment | Compound 1A is a metabolite of the compound of Preparation 1 | –
2 | CCCCOc1ncc(C(C)O)cc1-c1nc2c(CC)n(C3CN(CC)C3)nc2c(=O)[nH]1 (centres unmarked) [Example 1A, 5-[2-Butoxy-5-(1-hydroxyethyl)-3-pyridinyl]-3-ethyl-2-(1-ethyl-3-azetidinyl)-2,6-dihydro-7H-pyrazolo[4,3-d]pyrimidin-7-one] | reduces to levels below the detection limit of the equipment | converted in vivo to provide the compound of Preparation 1 | 825
